# Results published in ChEMBL document CHEMBL1671626, “In vitro profiling of ceftaroline against a collection of recent bacterial clinical isolates from across the United States” (2008).
# How the values were obtained:
# Type in all cases: functional
# Streptococcus pneumoniae [1] = test: Antibacterial activity against penicillin-susceptible Streptococcus pneumoniae assessed as resistant isolates by CLSI M7-A7 broth microdilution method
# Staphylococcus aureus [2] = test: Antibacterial activity against coagulase-negative and oxacillin-resistant Staphylococcus aureus assessed as resistant isolates by CLSI M7-A7 broth microdilution method
# Staphylococcus aureus [3] = test: Antibacterial activity against coagulase-negative and oxacillin-resistant Staphylococcus aureus assessed as susceptible isolates by CLSI M7-A7 broth microdilution method
# Streptococcus pneumoniae [4] = test: Antibacterial activity against penicillin-resistant Streptococcus pneumoniae assessed as resistant isolates by CLSI M7-A7 broth microdilution method
# Pasteurella multocida [5] = test: Antibacterial activity against Pasteurella multocida assessed as susceptible isolates by CLSI M7-A7 broth microdilution method
# Staphylococcus aureus [6] = test: Antibacterial activity against coagulase-negative and oxacillin-susceptible Staphylococcus aureus assessed as resistant isolates by CLSI M7-A7 broth microdilution method
# Staphylococcus aureus [7] = test: Antibacterial activity against methicillin-susceptible Staphylococcus aureus assessed as resistant isolates by CLSI M7-A7 broth microdilution method
# Moraxella catarrhalis [8] = test: Antibacterial activity against beta lactamase-positive Moraxella catarrhalis assessed as susceptible isolates by CLSI M7-A7 broth microdilution method
# Staphylococcus aureus [9] = test: Antibacterial activity against methicillin-susceptible Staphylococcus aureus by CLSI M7-A7 broth microdilution method
# Streptococcus agalactiae [10] = test: Antibacterial activity against erythromycin-susceptible Streptococcus agalactiae by CLSI M7-A7 broth microdilution method
# Streptococcus agalactiae [11] = test: Antibacterial activity against erythromycin-nonsusceptible Streptococcus agalactiae assessed as resistant isolates by CLSI M7-A7 broth microdilution method
# Streptococcus pneumoniae [12] = test: Antibacterial activity against penicillin-susceptible Streptococcus pneumoniae by CLSI M7-A7 broth microdilution method
# Streptococcus pyogenes [13] = test: Antibacterial activity against erythromycin-susceptible Streptococcus pyogenes by CLSI M7-A7 broth microdilution method
# Streptococcus pyogenes [14] = test: Antibacterial activity against erythromycin-nonsusceptible Streptococcus pyogenes assessed as susceptible isolates by CLSI M7-A7 broth microdilution method
# Staphylococcus aureus [15] = test: Antibacterial activity against coagulase-negative and oxacillin-susceptible Staphylococcus aureus assessed as susceptible isolates by CLSI M7-A7 broth microdilution method
# Pasteurella multocida [16] = test: Antibacterial activity against Pasteurella multocida assessed as resistant isolates by CLSI M7-A7 broth microdilution method
# Enterococcus faecalis [17] = test: Antibacterial activity against vancomycin-susceptible Enterococcus faecalis assessed as resistant isolates by CLSI M7-A7 broth microdilution method
# Enterococcus faecalis [18] = test: Antibacterial activity against vancomycin-resistant Enterococcus faecalis assessed as resistant isolates by CLSI M7-A7 broth microdilution method
# Enterococcus faecalis [19] = test: Antibacterial activity against vancomycin-susceptible Enterococcus faecalis by CLSI M7-A7 broth microdilution method
# Streptococcus agalactiae [20] = test: Antibacterial activity against erythromycin-nonsusceptible Streptococcus agalactiae by CLSI M7-A7 broth microdilution method
# Streptococcus pneumoniae [21] = test: Antibacterial activity against penicillin-resistant Streptococcus pneumoniae by CLSI M7-A7 broth microdilution method
# Moraxella catarrhalis [22] = test: Antibacterial activity against beta lactamase-positive Moraxella catarrhalis by CLSI M7-A7 broth microdilution method
# Streptococcus pyogenes [23] = test: Antibacterial activity against erythromycin-susceptible Streptococcus pyogenes assessed as susceptible isolates by CLSI M7-A7 broth microdilution method
# Enterococcus faecalis [24] = test: Antibacterial activity against vancomycin-resistant Enterococcus faecalis by CLSI M7-A7 broth microdilution method
# Streptococcus pneumoniae [25] = test: Antibacterial activity against penicillin-susceptible Streptococcus pneumoniae assessed as susceptible isolates by CLSI M7-A7 broth microdilution method
# Staphylococcus aureus [26] = test: Antibacterial activity against coagulase-negative and oxacillin-susceptible Staphylococcus aureus by CLSI M7-A7 broth microdilution method
# Staphylococcus aureus [27] = test: Antibacterial activity against methicillin-resistant Staphylococcus aureus by CLSI M7-A7 broth microdilution method
# Enterococcus faecalis [28] = test: Antibacterial activity against vancomycin-resistant Enterococcus faecalis assessed as susceptible isolates by CLSI M7-A7 broth microdilution method
# Moraxella catarrhalis [29] = test: Antibacterial activity against beta lactamase-positive Moraxella catarrhalis assessed as resistant isolates by CLSI M7-A7 broth microdilution method
# Streptococcus pneumoniae [30] = test: Antibacterial activity against penicillin-resistant Streptococcus pneumoniae assessed as susceptible isolates by CLSI M7-A7 broth microdilution method
# Streptococcus agalactiae [31] = test: Antibacterial activity against erythromycin-susceptible Streptococcus agalactiae assessed as susceptible isolates by CLSI M7-A7 broth microdilution method
# Staphylococcus aureus [32] = test: Antibacterial activity against methicillin-resistant Staphylococcus aureus assessed as resistant isolates by CLSI M7-A7 broth microdilution method
# Enterococcus faecium [33] = test: Antibacterial activity against vancomycin-resistant Enterococcus faecium assessed as susceptible isolates by CLSI M7-A7 broth microdilution method
# Enterococcus faecalis [34] = test: Antibacterial activity against vancomycin-susceptible Enterococcus faecalis assessed as susceptible isolates by CLSI M7-A7 broth microdilution method
# Streptococcus agalactiae [35] = test: Antibacterial activity against erythromycin-nonsusceptible Streptococcus agalactiae assessed as susceptible isolates by CLSI M7-A7 broth microdilution method
# Pasteurella multocida [36] = test: Antibacterial activity against Pasteurella multocida by CLSI M7-A7 broth microdilution method
# Streptococcus viridans [37] = test: Antibacterial activity against penicillin-nonsusceptible Streptococcus viridans assessed as susceptible isolates by CLSI M7-A7 broth microdilution method
# Staphylococcus aureus [38] = test: Antibacterial activity against methicillin-susceptible Staphylococcus aureus assessed as susceptible isolates by CLSI M7-A7 broth microdilution method
# Streptococcus viridans [39] = test: Antibacterial activity against penicillin-susceptible Streptococcus viridans by CLSI M7-A7 broth microdilution method
# Streptococcus pyogenes [40] = test: Antibacterial activity against erythromycin-nonsusceptible Streptococcus pyogenes by CLSI M7-A7 broth microdilution method
# Streptococcus viridans [41] = test: Antibacterial activity against penicillin-nonsusceptible Streptococcus viridans by CLSI M7-A7 broth microdilution method
# Staphylococcus aureus [42] = test: Antibacterial activity against coagulase-negative and oxacillin-resistant Staphylococcus aureus by CLSI M7-A7 broth microdilution method
# Streptococcus viridans [43] = test: Antibacterial activity against penicillin-nonsusceptible Streptococcus viridans assessed as resistant isolates by CLSI M7-A7 broth microdilution method
# Streptococcus viridans [44] = test: Antibacterial activity against penicillin-susceptible Streptococcus viridans assessed as resistant isolates by CLSI M7-A7 broth microdilution method
# Enterococcus faecium [45] = test: Antibacterial activity against vancomycin-resistant Enterococcus faecium by CLSI M7-A7 broth microdilution method
# Enterococcus faecium [46] = test: Antibacterial activity against vancomycin-resistant Enterococcus faecium assessed as resistant isolates by CLSI M7-A7 broth microdilution method
# Staphylococcus aureus [47] = test: Antibacterial activity against methicillin-resistant Staphylococcus aureus assessed as susceptible isolates by CLSI M7-A7 broth microdilution method
# Streptococcus pyogenes [48] = test: Antibacterial activity against erythromycin-nonsusceptible Streptococcus pyogenes assessed as resistant isolates by CLSI M7-A7 broth microdilution method
# Streptococcus viridans [49] = test: Antibacterial activity against penicillin-susceptible Streptococcus viridans assessed as susceptible isolates by CLSI M7-A7 broth microdilution method
smiles,measurement,setting,value
CC[C@H]1OC(=O)[C@H](C)[C@@H](O[C@H]2C[C@@](C)(OC)[C@@H](O)[C@H](C)O2)[C@H](C)[C@@H](O[C@@H]2O[C@H](C)C[C@H](N(C)C)[C@H]2O)[C@](C)(O)C[C@@H](C)C(=O)[C@H](C)[C@@H](O)[C@]1(C)O [ERYTHROMYCIN],Activity,Streptococcus pneumoniae [1],9.9%
same,Activity,Staphylococcus aureus [2],81.3%
same,Activity,Staphylococcus aureus [3],18.4%
same,Activity,Streptococcus pneumoniae [4],71.6%
same,Activity,Pasteurella multocida [5],4.5%
same,Activity,Staphylococcus aureus [6],49.3%
same,Activity,Staphylococcus aureus [7],32.5%
same,Activity,Moraxella catarrhalis [8],100%
same,MIC50,Staphylococcus aureus [9],0.5 µg/mL
same,MIC90,Staphylococcus aureus [9],> 8 µg/mL
same,MIC50,Streptococcus agalactiae [10],0.03 µg/mL
same,MIC90,Streptococcus agalactiae [10],0.06 µg/mL
same,Activity,Streptococcus agalactiae [11],92.9%
same,MIC50,Streptococcus pneumoniae [12],0.03 µg/mL
same,MIC90,Streptococcus pneumoniae [12],0.5 µg/mL
same,MIC50,Streptococcus pyogenes [13],0.03 µg/mL
same,MIC90,Streptococcus pyogenes [13],0.06 µg/mL
same,Activity,Streptococcus pyogenes [14],0%
same,Activity,Staphylococcus aureus [15],49.8%
same,Activity,Pasteurella multocida [16],77.3%
same,Activity,Enterococcus faecalis [17],59.9%
same,Activity,Enterococcus faecalis [18],96%
same,MIC50,Enterococcus faecalis [19],> 8 µg/mL
same,MIC90,Enterococcus faecalis [19],> 8 µg/mL
same,MIC50,Streptococcus agalactiae [20],16 µg/mL
same,MIC90,Streptococcus agalactiae [20],> 16 µg/mL
same,MIC50,Streptococcus pneumoniae [21],8 µg/mL
same,MIC90,Streptococcus pneumoniae [21],> 16 µg/mL
same,MIC,Moraxella catarrhalis [22],≤ 0.12 µg/mL
same,MIC50,Moraxella catarrhalis [22],≤ 0.12 µg/mL
same,MIC90,Moraxella catarrhalis [22],≤ 0.12 µg/mL
same,Activity,Streptococcus pyogenes [23],100%
same,MIC,Enterococcus faecalis [24],> 1 µg/mL
same,Activity,Streptococcus pneumoniae [25],89.1%
same,MIC50,Staphylococcus aureus [26],1 µg/mL
same,MIC90,Staphylococcus aureus [26],> 8 µg/mL
same,MIC50,Staphylococcus aureus [27],> 8 µg/mL
same,Activity,Enterococcus faecalis [28],0%
same,Activity,Moraxella catarrhalis [29],0%
same,Activity,Streptococcus pneumoniae [30],28.4%
same,Activity,Streptococcus agalactiae [31],100%
same,Activity,Staphylococcus aureus [32],94.4%
same,Activity,Enterococcus faecium [33],0%
same,Activity,Enterococcus faecalis [34],10.2%
same,Activity,Streptococcus agalactiae [35],0%
same,MIC50,Pasteurella multocida [36],2 µg/mL
same,MIC90,Pasteurella multocida [36],4 µg/mL
same,Activity,Streptococcus viridans [37],21.4%
same,Activity,Staphylococcus aureus [38],65.2%
same,MIC50,Streptococcus viridans [39],0.06 µg/mL
same,MIC90,Streptococcus viridans [39],4 µg/mL
same,MIC50,Streptococcus pyogenes [40],8 µg/mL
same,MIC90,Streptococcus pyogenes [40],> 16 µg/mL
same,MIC50,Streptococcus viridans [41],2 µg/mL
same,MIC90,Streptococcus viridans [41],> 16 µg/mL
same,MIC50,Staphylococcus aureus [42],> 8 µg/mL
same,Activity,Streptococcus viridans [43],71.4%
same,Activity,Streptococcus viridans [44],40.2%
same,MIC50,Enterococcus faecium [45],> 8 µg/mL
same,MIC90,Enterococcus faecium [45],> 8 µg/mL
same,Activity,Enterococcus faecium [46],92.3%
same,Activity,Staphylococcus aureus [47],4.5%
same,Activity,Streptococcus pyogenes [48],80%
same,Activity,Streptococcus viridans [49],58.6%
